We go through 10 compounds from patent US7994140B2, “Classes of compounds that interact with GPCRs” (Alchemia Limited, priority 2002, dated 2011).

One assay concerns the target T1, SST5 (Homo sapiens, UniProt P35346).
T1 construct: purchased Perkin Elmer BioSignal; host or cells: HEK 293
Put plainly: GPCR radioligand binding (RLB) assay, somatostatin SST5, [125I]SST-14. The note with it: 10 micromolar compound; for SST5 inhibition at 10 micromolar: recombinant human receptor membranes (HEK 293); for SSTS inhibition at 10 micromolar: Example Library 8. In outline:
(§1)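 Competition binding against radioligand ([125I]NDP-αMSH for MC4, [125I]SST-14 for SST5) on membranes of HEK 293 cells carrying the human receptor; buffer and incubation time optimized per receptor. Filtration through 0.5% PEI-treated glass fiber, washing, then scintillation counting.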

Another assay deals with T2, MC4 (Homo sapiens, UniProt P32245).
T2 construct: purchased Perkin Elmer BioSignal; host or cells: HEK 293
T2 sequence (P32245 whole entry): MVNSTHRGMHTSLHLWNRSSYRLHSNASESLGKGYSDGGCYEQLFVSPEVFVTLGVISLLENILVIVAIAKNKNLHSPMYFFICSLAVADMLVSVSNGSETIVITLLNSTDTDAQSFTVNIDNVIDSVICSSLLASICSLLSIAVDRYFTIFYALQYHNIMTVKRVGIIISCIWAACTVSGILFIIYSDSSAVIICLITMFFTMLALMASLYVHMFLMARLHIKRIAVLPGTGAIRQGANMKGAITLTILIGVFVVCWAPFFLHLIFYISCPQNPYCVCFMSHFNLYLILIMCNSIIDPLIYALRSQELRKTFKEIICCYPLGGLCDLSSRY
The assay is described as follows: GPCR radioligand binding (RLB) assay, melanocortin MC4, [125I]NDP-αMSH. The note with it: 10 micromolar compound; recombinant human receptor membranes (HEK 293). In outline: as §1

T1 sequence (P35346 whole entry): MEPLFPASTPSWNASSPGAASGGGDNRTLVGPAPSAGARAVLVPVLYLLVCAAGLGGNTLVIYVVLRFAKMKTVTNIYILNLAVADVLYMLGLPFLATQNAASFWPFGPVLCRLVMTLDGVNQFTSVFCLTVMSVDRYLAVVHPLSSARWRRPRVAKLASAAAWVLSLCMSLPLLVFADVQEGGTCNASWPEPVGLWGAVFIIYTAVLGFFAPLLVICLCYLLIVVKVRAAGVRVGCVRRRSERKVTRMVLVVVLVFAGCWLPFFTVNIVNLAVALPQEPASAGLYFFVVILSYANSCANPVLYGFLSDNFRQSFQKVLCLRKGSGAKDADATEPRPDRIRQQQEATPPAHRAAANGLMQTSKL

In the case of `CSC1OC(COC(=O)Cc2ccccc2)C(O)C(OCc2cccc(N)c2)C1NCc1ccc(Cl)cc1` (centres unmarked) [Compound 313], the “SST5 inhibition at 10 micromolar” value at SST5 is “+ (Indicates inhibition greater than . . . 50%)”. In addition, at MC4, the “MC4 inhibition at 10 micromolar” value is “+ (Indicates inhibition greater than . . . 50%)”.
On to `CSC1O[C@H](COCc2ccccc2)[C@@H](O)[C@H](OCc2cccc(N)c2)[C@H]1NC(=O)CCC1CNc2ccccc21` (some centres unmarked) [Compound 320], for which, at SST5, the “SST5 inhibition at 10 micromolar” value is reported as “+ (Indicates inhibition greater than . . . 50%)”. In addition, the “MC4 inhibition at 10 micromolar” value on MC4 is on record as “+ (Indicates inhibition greater than . . . 50%)”.
In the case of `CSC1O[C@H](COCc2ccc(Cl)cc2)[C@@H](O)[C@H](OCc2cccc(N)c2)[C@H]1NC(=O)Cc1c[nH]c2ccccc12` (some centres unmarked) [Compound 324], the “SST5 inhibition at 10 micromolar” value on SST5 is recorded as “+ (Indicates inhibition greater than . . . 50%)”. Further, the “MC4 inhibition at 10 micromolar” value at MC4 is given as “+ (Indicates inhibition greater than . . . 50%)”.
As to `CSC1OC(COCc2cccc(N)c2)C(O)C(OCc2ccccc2)C1NC(=O)Cc1ccccc1` (centres unmarked) [Compound 327], the “SST5 inhibition at 10 micromolar” value on SST5 was “+ (Indicates inhibition greater than . . . 50%)”. The “MC4 inhibition at 10 micromolar” value at MC4 was “+ (Indicates inhibition greater than . . . 50%)”.
In the case of `CSC1OC(COCc2cccc(N)c2)C(O)C(OCc2ccccc2)C1NC(=O)CCC1CNc2ccccc21` (centres unmarked) [Compound 330], on SST5, the “SST5 inhibition at 10 micromolar” value is reported as “+ (Indicates inhibition greater than . . . 50%)”. Also, the “MC4 inhibition at 10 micromolar” value at MC4 is recorded as “+ (Indicates inhibition greater than . . . 50%)”.
Turning to `CSC1OC(COCc2cccc(N)c2)C(O)C(OCc2ccc(Cl)cc2)C1NC(=O)c1ccccc1` (centres unmarked) [Compound 331], at SST5, the “SST5 inhibition at 10 micromolar” value is “+ (Indicates inhibition greater than . . . 50%)”. The “MC4 inhibition at 10 micromolar” value on MC4 is given as “+ (Indicates inhibition greater than . . . 50%)”.
Consider `CSC1O[C@H](COCc2cccc(N)c2)[C@@H](O)[C@H](OCc2ccccc2)[C@H]1NC(=O)Cc1c[nH]c2ccccc12` (some centres unmarked) [Compound 336], for which the “SSTS inhibition at 10 micromolar” value at SST5 is recorded as “+ (Indicates inhibition greater than . . . 50%)”. Besides, on MC4, the “MC4 inhibition at 10 micromolar” value was “+ (Indicates inhibition greater than . . . 50%)”.
Regarding `CSC1O[C@H](COCc2cccc(N)c2)[C@@H](O)[C@H](OCc2ccc(Cl)cc2)[C@H]1NC(=O)c1ccccc1` (some centres unmarked) [Compound 338], at SST5, the “SSTS inhibition at 10 micromolar” value is on record as “+ (Indicates inhibition greater than . . . 50%)”. Besides, the “MC4 inhibition at 10 micromolar” value at MC4 is given as “+ (Indicates inhibition greater than . . . 50%)”.
On to `CSC1O[C@H](COCc2cccc(N)c2)[C@@H](O)[C@H](OCc2ccc(Cl)cc2)[C@H]1NC(=O)Cc1ccccc1` (some centres unmarked) [Compound 339], for which the “SSTS inhibition at 10 micromolar” value on SST5 is “+ (Indicates inhibition greater than . . . 50%)”. Also, the “MC4 inhibition at 10 micromolar” value on MC4 is recorded as “+ (Indicates inhibition greater than . . . 50%)”.
As for `CSC1O[C@H](COCc2cccc(N)c2)[C@@H](O)[C@H](OCc2ccc(Cl)cc2)[C@H]1NC(=O)Cc1c[nH]c2ccccc12` (some centres unmarked) [Compound 341], at SST5, the “SSTS inhibition at 10 micromolar” value is on record as “+ (Indicates inhibition greater than . . . 50%)”. Moreover, the “MC4 inhibition at 10 micromolar” value at MC4 is “+ (Indicates inhibition greater than . . . 50%)”.
